Article PMC11025159 (Journal of Translational Medicine, 2024)

How the values were obtained:
[1] = system: DHT-induced AGA mice; assay: Hair regrowth in DHT-induced AGA mice model (topical, 28 days); assay type: in vivo, C57BL/6J mice; conditions: for H&E skin histopathology finding: Days 7, 14, 21, 28; for hair follicle phase (histopathology): skin samples days 7, 14, 21, 28; for entry into the anagen phase: topical once a day in presence of testosterone
Procedure: C57BL/6 J mice (male) were obtained from CSIR-IIIM Animal House at 7 weeks of age. We used a DHT-induced AGA mice model for this study. […] At the end of the experiment, skin samples were collected and preserved in 10% neutral buffered formalin for tissue sectioning and staining using haematoxylin and eosin (H&E). The histopathological examinations were performed under the 10× and 40× objectives of light microscope (Magnus, Mx21i).
Dorsal skin samples from C57BL/6J mice were shaved and collected for histological and molecular analyses on Days 7, 14, 21, and 28. The full-thickness skin tissue was fixed in a 10% neutral buffered formalin solution (Sigma) overnight and subsequently dehydrated for embedding in paraffin. Haematoxylin and eosin (H&E) staining was performed on the skin tissue, and digital photomicrographs were taken from the representative areas using light microscope (Magnus, Mx21i).
The quantification of anagen initiation was assessed by observing changes in the dorsal skin colour of C57BL/6 mice, a phenomenon closely linked to the onset of the anagen phase. Anagen quantification was done by employing threshold analysis on dorsal skin colouration using ImageJ. The darkening of the skin, attributed to melanogenesis, strongly correlates with the progression of anagen. This analysis is visually depicted as a heatmap using GraphPad Prism 9.5 Software.

[2] = system: athymic nude mice (NU/J Foxn1nu); assay: Hair growth in athymic nude mice (topical, 28 days); assay type: in vivo; conditions: for H&E skin histopathology finding / hair follicle grade: day 28; for early onset of hair: topical
Procedure: The groups are as follows: Group 1-Control (untreated), Group 2-Vehicle control, Group 3-tofacitinib citrate (0.8 mg/Kg), Group 4-tofacitinib citrate (0.08 mg/Kg), Group 5-MJ04 (0.08 mg/Kg), Group 6-MJ04 (0.04 mg/Kg), Group 7-MJ04 (0.016 mg/Kg), Group 8-baricitinib (0.1 mg/Kg), Group 9-baricitinib (0.04 mg/Kg), and Group 10-baricitinib (0.02 mg/Kg). At the end of the experiment, skin samples were collected and preserved in 10% neutral buffered formalin for tissue sectioning and staining using haematoxylin and eosin (H&E). The histopathological examinations were performed under the 10× and 40× objectives of light microscope (Magnus, Mx21i), and hair follicles were graded on a scale of 0 to 4 (++++).
The skin samples collected from athymic nude mice (NU/J Foxn1^nu) were preserved in 10% neutral buffered formalin and processed for tissue sectioning. The skin sections (10 µm) of nude mice were stained using haematoxylin and eosin (H&E) and viewed under 10× and 40× objectives of the light microscope (Magnus, Mx21i). The histopathological examination of the samples was performed, and the hair follicles in the skin sections were graded on a scale of 0 to 4 (++++).

Compound	H&E skin histopathology finding ([1]; 0.04mg/kg)	hair follicle phase (histopathology) [1]	entry into the anagen phase [1]	H&E skin histopathology finding ([2]; 0.02 mg/kg)	hair follicle grade ([2]; 0.02 mg/kg)	H&E skin histopathology finding ([2]; 0.04 mg/kg)	hair follicle grade ([2]; 0.04 mg/kg)	H&E skin histopathology finding ([2]; 0.1 mg/kg)	hair follicle grade ([2]; 0.1 mg/kg)	early onset of hair [2] [days]	hair growth compared to controls and tofacitinib-treated mice ([1]; 0.04 mg/Kg topical)	H&E skin histopathology finding ([1]; 0.08mg/kg)	mice displaying intense skin darkening followed by hair growth ([1]; within 10 days of treatment)	H&E skin histopathology finding ([2]; 0.016 mg/kg)	hair follicle grade ([2]; 0.016 mg/kg)	H&E skin histopathology finding ([2]; 0.08 mg/kg)	hair follicle grade ([2]; 0.08 mg/kg)
CCS(=O)(=O)N1CC(CC#N)(n2cc(-c3ncnc4[nH]ccc34)cn2)C1 [Baricitinib, baricitinib, reference compound]	Minimal degree of epidermal thickening with increased distinct hair follicles	at least in the anagen IIIc-IV phase	rapid entry into the anagen phase within seven days of treatment	Moderate degree of epidermal thickening	++++ (graded on a scale ranging from 0 to 4 (++++))	Moderate degree of epidermal thickening	++++ (graded on a scale ranging from 0 to 4 (++++))	Increased and morphologically distinct hair follicles	+++ (graded on a scale ranging from 0 to 4 (++++))	12	–	–	–	–	–	–	–
Fc1ccc(-c2cnc3[nH]cc(-c4ccnc(NC5CC5)n4)c3c2)cc1 [MJ04]	Minimal degree of epidermal atrophy	at least in the anagen IIIc-IV phase	rapid entry into the anagen phase within seven days of treatment	–	–	Mild epidermal thinning with increased hair follicles in the dermis and hypodermis	++++ (graded on a scale ranging from 0 to 4 (++++))	–	–	12	significantly higher and homogeneous hair growth	Normal epidermis with increased hair follicles	around 90%	Mild epidermal thickening with increased hair follicles	+++ (graded on a scale ranging from 0 to 4 (++++))	Minimal epidermal thickening with moderate hair follicle	++ (graded on a scale ranging from 0 to 4 (++++))
